USRE47078E1, “Polymorphic forms of N-[4-(trifluoromethyl)benzyl]-4-methoxybutyramide” (Laboratorio Farmaceutico C.T. S.R.L., priority 2007, dated 2018)
Converted amounts (≈) assume the structure as drawn. Read-outs that look alike come from different tables or passages of the source.

Key:
Acute toxicity in mouse = details: in vivo, single
Protocol: Single and repeated-dose toxicity studies in rodents and non-rodents were carried out to support the clinical trials of the test compound, i.e. polymorphic Form A. Single toxicity studies were performed in mice and rats by the intraperitoneal and the oral routes. Repeated oral studies (28 days administration followed by 14 days recovery period) were performed in rats and dogs.

[1] = Thermodynamic stability / interconversion of the polymorphs; type: physicochemical
conscious dogs = experiment: Cardiovascular evaluation in conscious dogs (telemetry); type: in vivo, dog
Protocol: (§1) The possible adverse effects of polymorphic Form A on the CNS, cardiovascular, respiratory and immune functions were evaluated in vitro and in vivo (rats and dogs) in different experimental models. In the in vivo tests, the tested compound was always given by single oral administration at the doses of 100, 300 and 1000 mg/kg.
Any possible effect of polymorphic Form A administered at the doses of 100, 300 and 1000 mg/kg by oral route on blood pressure, heart rate and electrocardiogram was evaluated in conscious dogs, free to move about, previously instrumented with telemetric transmitters. In the first part of the study, only telemetric measurements were recorded; the recording of the parameters started at least 24 hours before the administration of the compound and were continued for 24 hours following dosing. In the second part, only the highest dose of 1000 mg/kg was administered and complementary investigations such as 6-lead electrocardiogram (leads I, II, III, aVL, aVR and aVF), blood sampling and observation of the animals were performed before treatment and 3 hours post-treatment.

Salmonella typhimurium = experiment: Salmonella Typhimurium Reverse Mutation Assay (Ames test); type: cell-based
Protocol: The mutagenic potential of polymorphic Form A was evaluated in vitro in the Salmonella Typhimurium Reverse Mutation Assay according to EC guidelines. […] Therefore polymorphic Form A is to be considered non-mutagenic in this Salmonella typhimurium reverse mutation assay.

[2] = tested on: Sardinian Alcohol preferring rats (sP); experiment: Alcohol Deprivation Effect in deprived sP rats; type: in vivo, rat
Protocol: Tests were carried out in Sardinian Alcohol preferring rats (sP), i.e. a rodent line genetically selected for their spontaneous alcohol consume. These animals were adopted as the main specific animal model in the research program due to the fact that these rats (kept in a free-choice regimen between water and a 10% ethanol solution) consume large amounts of alcohol (6-7 g/Kg/day), sharing a great preference for […] (80-100%).
Under the standard, these rats are subjected to homecage two-bottle free choice regimen between 10% alcohol and water with unlimited access (24 h/day) and they show these features: daily intake of about 6 g/Kg of alcohol; preference ratio (alcohol solution vs total fluids) above 80%; fractioning of daily alcohol intake in 3-4 binges; achievement of BALs (Blood Alcohol Levels) above 50 mg % at each binge; induction of pharmaceutical effects (anxiolysis, motor stimulation) and regulation by a central, hedonic set-point mechanism.
2. Alcohol Deprivation Effect in Deprived sP Rats
To further characterize the anti-alcohol effect of polymorphic Form A, this compound was evaluated on the Alcohol Deprivation Effect (ADE). […] Intake was measured 1 hour after lights off.

rats = experiment: Hexobarbital sleeping time in rats; type: in vivo, rat
Protocol: as §1
The test consists in the measurement of the duration of hexobarbital-induced sleep; substances with a sedative or antisleep action cause increase or decrease respectively in the duration of hexobarbital induced sleep.

[3] = Solubility of the polymorphs at different pH (HPLC assay); type: physicochemical; details: for solubility at 24 h / solubility at 30 min: thermodynamic from solid; for solubility at 24 h: read-out: Solubility, After 24 hours; for solubility at 30 min: read-out: Solubility, Initial evaluation
Protocol: Both samples of powder (Form A and Form B) were used in order to evaluate the solubility properties of the two polymorphs at different pH.
The two samples were tested in the following pH conditions: • Hydrochloric acid buffer at pH=1.2 • Acetic acid at pH=3.0 • Phosphate buffer at pH=3.0 • Phosphate buffer at pH=4.6 • Phosphate buffer at pH=6.0 • Phosphate buffer at pH=7.4 • Alkaline phosphate buffer at pH=8.0
0.5 g of each samples were dissolved in a glass flask using 100 ml of the appropriate buffer. The two samples were then kept under stirring for 30 minutes. If the samples were completed dissolved, 1 additional gram was added in the flask and stirred for 30 minutes. The procedure was repeated till the presence of undissolved product in the bottom of the flask. After such a dissolution procedure, the samples were stored for 24 hours and then the dissolved amounts of Form A and Form B, respectively, were determined by HPLC assay.

[4] = acetic acid, pH 3, aqueous buffer, pH 3.0 (acetic acid)
[5] = alkaline phosphate buffer, pH 8, aqueous buffer, pH 8.0
[6] = buffer at pH 6.8 (buffer type not named for this pH), pH 6.8, aqueous buffer, pH 6.8
[7] = hydrochloric acid buffer, pH 1.2, simulated gastric fluid, pH 1.2
[8] = phosphate buffer, pH 3, aqueous buffer, pH 3.0 (phosphate buffer)
[9] = phosphate buffer, pH 4.6, aqueous buffer, pH 4.6
[10] = phosphate buffer, pH 6, aqueous buffer, pH 6.0
[11] = phosphate buffer, pH 7.4, aqueous buffer, pH 7.4

COCCCC(=O)NCc1ccc(C(F)(F)F)cc1 [Polymorphic Form A, N-[4-(trifluoromethyl)benzyl]-4-methoxybutyramide]
LD50 (Acute toxicity in mouse; ip, dose-range 200-1000): ~800 mg/kg
LD50 (Acute toxicity in mouse; oral, os, dose-range 2000-4000): > 4000 mg/kg
Thermodynamic stability, conversion of one form into the other [1]: thermodynamically stable, with no conversion of one into the other
Blood pressure, heart rate and electrocardiogram tracing (conscious dogs; 100 mg/kg oral): did not induce relevant changes
Presence in plasma (conscious dogs; 1000 mg/kg oral, 3 hours after the administration): confirmed the presence
6-lead electrocardiogram (conscious dogs; 1000 mg/kg oral, before and 3 hours after dosing): No disturbance in the 6-lead electrocardiogram
Vomiting (conscious dogs; 1000 mg/kg oral, between 0.5 and 17 hours after dosing): All animals vomited
Arterial blood pressure (mean, systolic and diastolic) (conscious dogs; 300 and 1000 mg/kg oral): slight increase in arterial blood pressure
PR and PQ interval durations (conscious dogs; 300 and 1000 mg/kg oral): slight decrease in PR and PQ interval durations
QT interval duration corrected for heart rate (Sarma's method) (conscious dogs; 300 and 1000 mg/kg oral): slight increase in QT interval duration
Electrocardiogram (lead II), T wave morphology (conscious dogs; all the doses tested): No disturbance in the electrocardiogram (lead II)
Genotoxicity, Ames test result (Salmonella typhimurium; S. typhimurium, in vitro, 3-500 μg/ml): Negative
Gene mutations by base pair changes or frameshifts (Salmonella typhimurium; TA 1535, TA 1537, TA 98, TA 100, TA102, 50 to 3000 μg/ml, with and without metabolic activation): did not induce gene mutations
Extra-consume of alcohol (ADE) ([2]; 5 mg/Kg): completely abolish the extra-consume of alcohol
Alcohol Deprivation Effect (ADE) ([2]; dose range 5-100 mg/Kg, given 30 min before lights off, intake 1 hour after lights off): completely suppressed ADE effect
Time taken to fall asleep and duration of the sleep (rats; highest dose (1000 mg/kg) oral): significant decrease of the time taken to fall asleep and of the duration of the sleep
Sleep duration (rats; intermediate dose (300 mg/kg) oral): slight decrease in sleep duration
Time taken to fall asleep and duration of the sleep (rats; lowest dose (100 mg/kg) oral): No statistical significant effect
solubility at 24 h [3, 4]: 160 µg/mL (≈ 582 µM)
solubility at 30 min [3, 4]: 124 µg/mL (≈ 450 µM)
solubility at 24 h [3, 5]: 142 µg/mL (≈ 515 µM)
solubility at 30 min [3, 5]: 134 µg/mL (≈ 486 µM)
solubility at 24 h [3, 6]: 164 µg/mL (≈ 597 µM)
solubility at 30 min [3, 6]: 106 µg/mL (≈ 385 µM)
Differences in solubility / dissolution properties between the two forms ([3]; dissolution tests on each polymorph): have not shown differences in the solubility properties
solubility at 24 h [3, 7]: 160 µg/mL (≈ 580 µM)
solubility at 30 min [3, 7]: 153 µg/mL (≈ 554 µM)
solubility at 24 h [3, 8]: 151 µg/mL (≈ 548 µM)
solubility at 30 min [3, 8]: 116 µg/mL (≈ 423 µM)
solubility at 24 h [3, 9]: 145 µg/mL (≈ 528 µM)
solubility at 30 min [3, 9]: 132 µg/mL (≈ 481 µM)
solubility at 24 h [3, 10]: 140 µg/mL (≈ 508 µM)
solubility at 30 min [3, 10]: 118 µg/mL (≈ 430 µM)
solubility at 24 h [3, 11]: 140 µg/mL (≈ 508 µM)
solubility at 30 min [3, 11]: 117 µg/mL (≈ 426 µM)
solubility at 24 h ([3]; water, Water): 164 µg/mL (≈ 596 µM)
solubility at 30 min ([3]; water, Water): 138 µg/mL (≈ 501 µM)
